Reference: paper PMC7139703, “Thiopurine Derivative-Induced Fpg/Nei DNA Glycosylase Inhibition: Structural, Dynamic and Functional Insights” (International Journal of Molecular Sciences, 2020)

Key:
LlFpg/DNA complex C2 = biological target: T1, LlFpg/DNA complex C2 (Lactococcus lactis subsp. cremoris, UniProt P42371); assay: EMSA, Fpg DNA binding to 14-mer [THF:C] duplex, non-specific complex C2 (Fpg/DNA 2/1); conditions: 2 mM TCEP, 6.7-fold molar excess over compound; Figure 3
T1 construct: made in house; host or cells: E. coli BH540 (fpg defective)
T1 sequence (P42371 2-273 limits assumed): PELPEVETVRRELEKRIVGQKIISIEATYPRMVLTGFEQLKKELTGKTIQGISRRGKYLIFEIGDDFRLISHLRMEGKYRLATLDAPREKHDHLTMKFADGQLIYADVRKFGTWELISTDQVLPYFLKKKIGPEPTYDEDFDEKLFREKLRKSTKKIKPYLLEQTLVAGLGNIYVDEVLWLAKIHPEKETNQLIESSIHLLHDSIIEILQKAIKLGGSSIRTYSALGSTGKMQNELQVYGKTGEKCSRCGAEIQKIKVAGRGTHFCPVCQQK
Text: (§1) To complement this study, we examined the effect of TXn on the binding of Fpg to a short DNA duplex containing a tetrahydrofuran (THF), a non-cleavable AP site analog. The enzyme specifically recognizes THF and forms a stable abortive complex with DNA [18, 34, 35, 36]. […] A representative titration experiment (with and without TCEP) of the 14-mer [THF:C] Fpg formed two stable complexes with this short DNA probe that were easily observed by EMSA: a high-affinity complex C1 corresponding to the lesion recognition complex (LRC), with nanomolar affinity, and a complex C2 only observed at higher Fpg concentrations. C2 results in C1 titration by a second Fpg molecule. This finding illustrates that the crystal structure of Fpg bound to 8-oxoG-carbanucleotide-containing DNA [38] (Figure S5). The stability of each preformed complex was then examined by EMSA in the presence of 2TX or TXn. […] The enzyme inactivation mediated by 2TX through ZnF oxidation that directly affects the DNA binding properties of the enzyme is also in agreement with this last observation.
The inhibitor concentrations that induced the loss of the half-maximal binding (IC50app^B) were determined from these curves and are reported in Table 1. IC50app^B compared well with IC50app^A. As observed above for the enzyme activity, strong reducers, such as TCEP, abolished the negative effects of 2TX and TXn on Fpg/DNA complex stability and formation. These findings again indicate that inhibition by thio-compounds essentially relies on the oxidation of the Fpg ZnF (for an example, see experiment with TX19, Figure S4). […] This troubling and unexpected observation led us to evaluate this effect with the TXn small library compounds. To prevent a side effect due to a possible partial reduction by TCEP, we performed EMSA in the presence of a 6.7-fold molar excess of TCEP with respect to 2TX and TXn after complex formation (Figure 3).
Figure 3 Impact of TXn on the non-specific Fpg/DNA complex C2 stability in highly reducing conditions. EMSA was performed as described in the ‘Material & Methods’, except TCEP was added at a 2 mM final concentration in each binding assay. (a) Representative experiment at 0.3 mM 2TX and more efficient TXn; (b) Dose-response with the best TXn. Upper panel: Representative EMSA experiment with TX10. Lower panel: Dose-response curves with the indicated TXn.
The DNA binding activity was measured using EMSA [37]. Briefly, 0.1 nM of the 5′-labeled 14-mer [THF:C] (see above) was incubated with the enzyme at 4 °C for 30 min in 25 mM HEPES/NaOH (pH 7.5), 150 mM NaCl, 5% glycerol, 0.1 mg/mL BSA and 8% DMSO. The incubation mixture was then loaded onto a native 10% polyacrylamide gel (Acryl/Bis 19/1) and electrophoresed at 25 V/cm for 90 min at 4 °C. After electrophoresis, the gels were dried and exposed overnight for autoradiography using a Typhoon imager and quantified with ImageQuant software. To evaluate the inhibitor effect of 2TX/TXn on the DNA binding activity of each Fpg/Nei enzyme, we first determined the experimental conditions required to bind 50% of the DNA probes without an inhibitor in the presence of 8% DMSO (limiting enzyme concentration). Under these conditions, we obtained the half-maximal DNA binding 0.25, 7 and 5 nM of Fpg, hNeil1 and mvNei1. We used this limited enzyme concentrations to evaluate the inhibitor effect of 2TX/TXn on the enzyme DNA binding activity. This effect was determined by the addition of the thio-compound in the pre-equilibrium mixture of the enzyme and DNA probe (30 min) and incubated for an additional 30 min at 4 °C. For the best inhibitors of Fpg, a dose-response curve was established from at least three independent experiments and the IC50 was determined (IC50^B, Table 1). […]
Rieux et al. Thiopurine derivative-induced Fpg/Nei DNA glycosylase inhibition:
structural, dynamic and functional insights
Figure S6. […]

LlFpg/DNA complex C1 = biological target: T2, LlFpg/DNA complex C1 (Lactococcus lactis subsp. cremoris, UniProt P42371); assay: EMSA, Fpg DNA binding to 14-mer [THF:C] duplex, complex C1 (lesion recognition complex, Fpg/DNA 1/1); conditions: homogeneous reduced or disulfide form in 50 mM sodium phosphate; 14-mer [THF:C]; read-out: IC50^B (Fpg DNA binding), homogeneous redox forms
T2 construct: made in house; host or cells: E. coli BH540 (fpg defective)
Text: as §1
Figure 2 The effect of 2TX and TXn on Fpg DNA binding to abasic site-containing DNA. A 14-mer DNA duplex containing a tetrahydrofurane (THF) site as an abasic site analog was incubated with a limiting Fpg concentration (0.25 nM) with and without increasing concentrations of TXn. Incubation mixtures were then analyzed by electrophoretic mobility shift assay (EMSA), as described in the ‘Materials and Methods’. (a) Titration experiments with (+) and without (-) 2 mM tris(2-carboxyethyl)phosphine hydrochloride (TCEP) C1 and C2 are for the [1/1] and [2/1] Fpg/DNA complexes, respectively (see detailed in the text). (b) Fpg DNA binding concentration-dependence for 2TX and the more efficient TXn inhibitors. A representative EMSA autoradiography with 0.25 nM of Fpg alone (lane no) and 0.5, 2.5, 5, 10, 20, 40, 50, 250, 1000 µM is shown in the upper panel. IC50app^B corresponds to the TXn amount needed to halve the C1 complex formation and was extracted from the dose-response curves (lower panel; Table 1).
The DNA binding activity was measured using EMSA [37]. Briefly, 0.1 nM of the 5′-labeled 14-mer [THF:C] (see above) was incubated with the enzyme at 4 °C for 30 min in 25 mM HEPES/NaOH (pH 7.5), 150 mM NaCl, 5% glycerol, 0.1 mg/mL BSA and 8% DMSO. The incubation mixture was then loaded onto a native 10% polyacrylamide gel (Acryl/Bis 19/1) and electrophoresed at 25 V/cm for 90 min at 4 °C. After electrophoresis, the gels were dried and exposed overnight for autoradiography using a Typhoon imager and quantified with ImageQuant software. To evaluate the inhibitor effect of 2TX/TXn on the DNA binding activity of each Fpg/Nei enzyme, we first determined the experimental conditions required to bind 50% of the DNA probes without an inhibitor in the presence of 8% DMSO (limiting enzyme concentration). Under these conditions, we obtained the half-maximal DNA binding 0.25, 7 and 5 nM of Fpg, hNeil1 and mvNei1. We used this limited enzyme concentrations to evaluate the inhibitor effect of 2TX/TXn on the enzyme DNA binding activity. This effect was determined by the addition of the thio-compound in the pre-equilibrium mixture of the enzyme and DNA probe (30 min) and incubated for an additional 30 min at 4 °C. For the best inhibitors of Fpg, a dose-response curve was established from at least three independent experiments and the IC50 was determined (IC50^B, Table 1).

LlFpg = biological target: T3, LlFpg (Lactococcus lactis subsp. cremoris, UniProt P42371); assay: LlFpg 8-oxoG-DNA glycosylase/AP lyase activity assay (Urea-PAGE radioassay); assay type: biochemical; conditions: for inhibition of Fpg catalytic activity by reduced forms: 400 µM, homogeneous reduced form; for IC50: homogeneous reduced or disulfide form dissolved in 50 mM sodium phosphate, no DMSO stock, read-out: IC50^A (Fpg catalysis), homogeneous redox forms
T3 construct: made in house; host or cells: E. coli BH540 (fpg defective)
Experimental: Figure 1 Effect of 2-thioxanthine (2TX)-derivatives on Fpg activity. A total of 20 nM of 5′-[^32P]-8-oxoG-containing 24-bp DNA duplex (labeled on the damaged strand) was incubated with 2 nM of LlFpg alone (dimethyl sulfoxide (DMSO) control) or with the indicated 2TX and 2TX-derivatives (TXn) concentrations, as described in the “Materials and Methods” section. (a) Screening of TXn for Fpg inhibition. Averages and standard deviations were obtained from at least three independent experiments. Mono- and di-thiolated compounds are highlighted in red and blue, respectively. (b) Dose-response curves for best inhibitors. Each data point represents the mean value obtained from at least three independent measurements.
(§2) Fpg, hNeil1 and mvNei1 are bifunctional DNA glycosylases associated with concerted DNA glycosylase activity (cleavage of the N-glycosidic bond between the base lesion and the C1′ of the deoxyribose) and AP lyase activity that comprises the successive cleavage of the phosphodiester bonds at the 3′ and 5′ of the resulting abasic (AP) site, respectively (β, δ-elimination). Thus, AP sites that result from the excision of the damaged base are quantitatively converted into one nucleoside gap by these enzymes. The DNA glycosylase/AP lyase activity of each enzyme was measured by incubating 20 nM of 24-mer DNA duplexes ([OG:C] and [DHU:G] for Fpg and hNeil1/mvNei1, respectively) 5′-labeling on the damaged strand (see above) with 2 nM of Fpg, or mvNei1 for 15 min or, with 20 nM of hNeil1 for 30 min at 37 °C in 10 mM Tris-HCl, pH 7.6, 150 mM NaCl, 1 mM EDTA, 0.1 mg/mL BSA and 8% DMSO. The reaction was stopped by the addition of 1 volume of formamide loading buffer (96% formamide, 20 mM Tris/HCl pH 8.0 and 2 mM Na2EDTA), heated at 80 °C for 2 min and then analyzed by 20% Urea-PAGE, as previously described. […] Under these conditions, only 50% of the substrate is converted to the cleavage product (limiting enzyme concentration conditions). For an initial evaluation of the inhibitory effect, 40 µM of 2TX/TXn was used. The thio-compound was added to the reaction mixture before the final addition of the enzyme (competition condition). For the best identified inhibitors, a dose-response curve was generated and IC50^A determined (Figure 1 and Table 1).

mvNei1 = biological target: T4, mvNei1 (Acanthamoeba polyphaga mimivirus, UniProt Q5UQ00); assay: mvNei1 DNA glycosylase/AP lyase activity assay on DHU:G 24-mer duplex; assay type: biochemical; conditions: Figure 6d
T4 construct: 6His (C); made in house; host or cells: E. coli Rosetta2 (DE3)
Experimental: (§3) Figure 4 Comparative analysis of the effect of 2TX and TXn on Fpg/Nei DNA glycosylases. Enzyme activities were measured as described in the Figure 1 legend using […] of a 5′-[^32P]-24-mer DNA duplex containing either an 8-oxoG opposite C for LlFpg or a […] (DHU) opposite G for hNeil1 and mvNei1. The DNA probe was incubated with the indicated protein concentration and 0.2 mM TXn compounds in the presence or absence of 1 mM dithiothreitol (DTT) and TCEP (a representative experiment is illustrated by the upper histograms). The DNA probe for EMSA was 0.1 nM of 5′-[^32P]-[…] DNA duplex containing THF with LlFpg and mvNei1 (bottom panels: gel autoradiography) with the indicated conditions and as described in ‘Materials and Methods’.
as §2

hNeil1 = hNeil1 (Homo sapiens, UniProt Q96FI4); assay: hNeil1 DNA glycosylase/AP lyase activity assay on DHU:G 24-mer duplex; assay type: biochemical; design: Overproduction was performed as described above for full length hNeil1; 6His (C); made in house; host or cells: E. coli Rosetta2 (DE3); conditions: Figure 6d
Experimental: as §3, §2

hNeil1, sequence (Q96FI4 whole entry): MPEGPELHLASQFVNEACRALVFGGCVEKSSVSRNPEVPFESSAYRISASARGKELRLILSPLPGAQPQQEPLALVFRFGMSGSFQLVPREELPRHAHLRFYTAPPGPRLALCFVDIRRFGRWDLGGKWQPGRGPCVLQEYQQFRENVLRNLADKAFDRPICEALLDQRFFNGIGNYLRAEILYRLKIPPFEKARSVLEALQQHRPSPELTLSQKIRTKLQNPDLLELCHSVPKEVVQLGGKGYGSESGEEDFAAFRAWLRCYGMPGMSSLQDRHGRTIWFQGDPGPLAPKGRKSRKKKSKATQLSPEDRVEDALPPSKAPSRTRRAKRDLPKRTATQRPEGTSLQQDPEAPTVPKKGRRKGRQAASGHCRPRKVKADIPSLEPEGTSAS
T4 sequence (Q5UQ00 whole entry): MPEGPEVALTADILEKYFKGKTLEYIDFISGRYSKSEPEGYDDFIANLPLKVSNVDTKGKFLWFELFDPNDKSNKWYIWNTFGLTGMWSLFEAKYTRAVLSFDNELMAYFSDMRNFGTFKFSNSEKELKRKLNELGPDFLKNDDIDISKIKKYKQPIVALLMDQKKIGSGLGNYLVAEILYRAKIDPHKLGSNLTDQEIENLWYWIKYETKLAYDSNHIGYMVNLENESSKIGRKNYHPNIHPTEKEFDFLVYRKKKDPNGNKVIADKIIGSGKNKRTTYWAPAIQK

CNc1nc(C(F)(F)F)nc2[nH]cnc12 [TX11]
destabilization of complex C2 in highly reducing conditions (LlFpg/DNA complex C2): among the best C2 destabilizers

O=c1[nH]c2[nH]c(=S)[nH]c(=O)c2[nH]1 [TX14Red]
IC50 (LlFpg/DNA complex C1): > 1000 µM
inhibition of Fpg catalytic activity by reduced forms (LlFpg): did not inhibit the enzyme
IC50 (LlFpg): > 1000 µM

O=c1[nH]c2nc(SSc3nc4[nH]c(=O)[nH]c4c(=O)[nH]3)[nH]c(=O)c2[nH]1 [TX14Ox]
inhibition of mvNei1 by homogeneous disulfide forms (mvNei1): neither 2TXOx nor TX14Ox inhibited
IC50 (LlFpg/DNA complex C1): 26 ± 1 µM
inhibition of hNeil1 by homogeneous disulfide forms (hNeil1): neither 2TXOx nor TX14Ox inhibited
IC50 (LlFpg): 2.7 µM

Cc1nc(S)c2[nH]cnc2n1 [TX4]
effect on Fpg 8-oxoG-DNA glycosylase/AP lyase activity (screening) (LlFpg; 40 µM compound, Figure 1a): drastically decreased the inhibitory effect

COc1nc(C(F)(F)F)nc2[nH]cnc12 [TX10]
destabilization of complex C2 in highly reducing conditions (LlFpg/DNA complex C2): among the best C2 destabilizers

O=c1[nH]c(=S)[nH]c2[nH]cnc12 [Compound 2TXRed, reference compound]
IC50 (LlFpg/DNA complex C1): > 1000 µM
inhibition of Fpg catalytic activity by reduced forms (LlFpg): did not inhibit the enzyme
IC50 (LlFpg): > 1000 µM

O=c1[nH]c(SSc2nc3[nH]cnc3c(=O)[nH]2)nc2[nH]cnc12 [Compound 2TXOx]
inhibition of mvNei1 by homogeneous disulfide forms (mvNei1): neither 2TXOx nor TX14Ox inhibited
IC50 (LlFpg/DNA complex C1): 34 ± 2 µM
inhibition of hNeil1 by homogeneous disulfide forms (hNeil1): neither 2TXOx nor TX14Ox inhibited
IC50 (LlFpg): 5.5 µM
